The values below come from ChEMBL document CHEMBL1144812, “Small molecules with structural similarities to siderophores as novel antimicrobials against Mycobacterium tuberculosis and Yersinia pestis” (Bioorg Med Chem Lett, 2008).

The target of series [1] is T1, AMP-binding enzyme family protein (Yersinia pestis, UniProt Q56950).
T1 sequence (Q56950 whole entry): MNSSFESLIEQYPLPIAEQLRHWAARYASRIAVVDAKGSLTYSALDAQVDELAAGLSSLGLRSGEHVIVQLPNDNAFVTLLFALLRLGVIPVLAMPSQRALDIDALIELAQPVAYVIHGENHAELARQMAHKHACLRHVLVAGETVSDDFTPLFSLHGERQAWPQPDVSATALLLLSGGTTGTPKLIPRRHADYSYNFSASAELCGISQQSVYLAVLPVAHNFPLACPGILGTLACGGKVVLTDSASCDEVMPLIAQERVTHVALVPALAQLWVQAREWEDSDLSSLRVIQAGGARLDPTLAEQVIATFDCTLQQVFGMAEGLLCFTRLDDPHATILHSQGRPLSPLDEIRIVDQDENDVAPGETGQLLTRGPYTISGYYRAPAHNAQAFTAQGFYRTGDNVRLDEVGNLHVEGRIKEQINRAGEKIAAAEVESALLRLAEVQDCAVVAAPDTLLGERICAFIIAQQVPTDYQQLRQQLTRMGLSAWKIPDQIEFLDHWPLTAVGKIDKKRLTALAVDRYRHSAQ
Put plainly: Inhibition of Yersinia pestis YbtE assessed as incorporation of [3H]salicyl group to HMWP2 protein.

The nature of series [2]: Cytotoxicity against human HeLa cells after 24 hrs. The series is classed as cell-based. The note with it: read-out: CD50.
The test system of series [3] is Mycobacterium tuberculosis. Put plainly: Antimycobacterial activity against Mycobacterium tuberculosis H37Rv in presence of iron deficient GAST-D medium. The series is classed as functional, organism-based.
For series [4], the system named is Mycobacterium tuberculosis. Put plainly: Antimycobacterial activity against Mycobacterium tuberculosis H37Rv in presence of iron rich GAST-D medium. The series is classed as functional, organism-based.
Series [5] has as its system Yersinia pestis. The experiment in a line: Antimicrobial activity against Yersinia pestis KIM6-2082.1+ in presence of iron rich PMH-D medium. It is filed as functional, organism-based.
In series [6] the test system is Yersinia pestis. Put plainly: Ratio of MIC90 for Yersinia pestis KIM6-2082.1+ in iron rich PMH-D medium to MIC90 for Yersinia pestis KIM6-2082.1+ in presence of iron limiting PMH-D medium. The series is classed as functional.
Series [7] relates to Yersinia pestis. The experiment in a line: Antimicrobial activity against Yersinia pestis KIM6-2082.1+ in presence of iron limiting PMH-D medium. It is filed as functional, organism-based.

SMILES strings stand for the structures.

By IC50 is commonly meant the concentration at which inhibition is half-maximal. The term MIC90 denotes an inhibitory concentration at the 90% level, which refers to growth in some studies and to a panel of isolates in others. Take `COc1cc([C@@H]2CC(c3ccccc3O)=NN2C(=S)Nc2ccccc2)ccc1O`: the concentration for half-maximal inhibition (IC50) was 0.2 µM in series [1]; no less than 500 µM in series [3]; no less than 500 µM in series [4]; greater than 150 µM in series [5]; 2 µM in series [7]. Also, in series [2], the CC50 at 24 h was 13 µM. Further, the MIC90 was no less than 500 µM in series [3], no less than 500 µM in series [4], greater than 150 µM in series [5] and 5 µM in series [7]. For the same compound, the Ratio in series [6] is given as greater than 30.
`Cc1ccc(NC(=S)N2N=C(c3ccccc3O)C[C@H]2c2ccc(O)cc2)cc1`: the IC50 in series [1] is 0.4 µM; in series [3] it was no less than 500 µM; in series [4] it was no less than 500 µM; in series [5], greater than 9 µM; in series [7], 0.9 µM. Moreover, the CC50 at 24 h in series [2] is 3 µM. In addition, the MIC90 in series [3] is no less than 500 µM; in series [4] it was no less than 500 µM; in series [5] it was greater than 9 µM; in series [7], 3 µM. Besides, in series [6], the Ratio is listed as greater than 3.
For the compound `COc1ccc(NC(=S)N2N=C(c3ccc(O)cc3O)C[C@H]2c2ccc(O)c(OC)c2)cc1`, the IC50 in series [1] is 1 µM; in series [3], 125 µM; in series [4], 167 µM; in series [5] it was greater than 9 µM; in series [7], 0.2 µM. In addition, the CC50 at 24 h in series [2] worked out at 31 µM. In addition, the MIC90 is greater than 250 µM in series [3], greater than 250 µM in series [4], greater than 9 µM in series [5] and 1 µM in series [7]. Moreover, in series [6], the Ratio was greater than 9.
Consider `Oc1ccccc1C1=NN(C(=S)Nc2ccccc2)[C@H](c2ccccc2)C1`, for which the half-inhibitory concentration (IC50) was 0.5 µM in series [1]; no less than 500 µM in series [3]; no less than 500 µM in series [4]; greater than 9 µM in series [5]; greater than 9 µM in series [7]. In addition, the CC50 at 24 h in series [2] was 3 µM. Also, the MIC90 was no less than 500 µM in series [3], no less than 500 µM in series [4], greater than 9 µM in series [5] and greater than 9 µM in series [7].
With `Oc1ccc([C@@H]2CC(c3ccc(O)cc3O)=NN2C(=S)Nc2ccccc2)cc1`, the IC50 is 1 µM in series [1]; 167 µM in series [3]; greater than 250 µM in series [4]; greater than 150 µM in series [5]; 1 µM in series [7]. Besides, the CC50 at 24 h in series [2] was 63 µM. Moreover, the MIC90 in series [3] was greater than 250 µM; in series [4] it was greater than 250 µM; in series [5], greater than 150 µM; in series [7], 2 µM. The Ratio in series [6] is listed as greater than 75.
With `Oc1ccccc1C1=NN(C(=S)Nc2ccccc2)[C@H](c2cccs2)C1`, in series [1], the concentration for half-maximal inhibition (IC50) is 2 µM.
Consider `COc1ccc([C@@H]2CC(c3ccccc3O)=NN2C(=S)Nc2ccccc2)cc1`, for which the IC50 was 1 µM in series [1]; no less than 500 µM in series [3]; no less than 500 µM in series [4]; greater than 19 µM in series [5]; 0.7 µM in series [7]. In series [2], the CC50 at 24 h was found to be 5 µM. The MIC90 in series [3] was no less than 500 µM; in series [4], no less than 500 µM; in series [5], greater than 19 µM; in series [7] it was greater than 19 µM.
For the compound `Nc1ncnc2c1ncn2[C@@H]1O[C@H](COS(=O)(=O)NC(=O)c2ccccc2O)[C@@H](O)[C@H]1O`, in series [1], the IC50 stood at 0.007 µM.
For the compound `COc1ccc(NC(=S)N2N=C(c3ccccc3O)C[C@H]2c2ccc(O)c(OC)c2)cc1`, the half-maximal inhibitory concentration (IC50) in series [1] was 0.5 µM; in series [3] it was no less than 500 µM; in series [4], no less than 500 µM; in series [5], greater than 150 µM; in series [7], 0.6 µM. Further, the CC50 at 24 h in series [2] stood at 25 µM. Besides, the MIC90 in series [3] was no less than 500 µM; in series [4] it was no less than 500 µM; in series [5], greater than 150 µM; in series [7], 2 µM. Moreover, in series [6], the Ratio was greater than 75.
Regarding `Oc1ccc([C@@H]2CC(c3ccccc3)=NN2C(=S)Nc2ccccc2)cc1`, the IC50 was greater than 12.5 µM in series [1]; no less than 500 µM in series [3]; no less than 500 µM in series [4]; greater than 38 µM in series [5]; greater than 38 µM in series [7]. For the same compound, in series [2], the CC50 at 24 h turned out to be 29 µM. The MIC90 in series [3] was no less than 500 µM; in series [4], no less than 500 µM; in series [5], greater than 38 µM; in series [7], greater than 38 µM.
Regarding `COc1cc([C@@H]2CC(c3ccccc3O)=NN2C(=S)Nc2ccccc2OC)ccc1O`, the concentration for half-maximal inhibition (IC50) in series [1] was 0.8 µM; in series [3] it was no less than 500 µM; in series [4], no less than 500 µM; in series [5] it was greater than 9 µM; in series [7], 1 µM. For the same compound, in series [2], the CC50 at 24 h stood at 11 µM. In addition, the MIC90 in series [3] was no less than 500 µM; in series [4], no less than 500 µM; in series [5] it was greater than 9 µM; in series [7], 6 µM. Moreover, the Ratio in series [6] is given as greater than 2.
`Oc1ccccc1C1=NN(C(=S)Nc2ccccc2)[C@H](c2ccccc2Cl)C1`: the IC50 was 2 µM in series [1]; no less than 500 µM in series [3]; no less than 500 µM in series [4]; greater than 5 µM in series [5]; greater than 5 µM in series [7]. Besides, the CC50 at 24 h in series [2] amounted to 5 µM. Further, the MIC90 in series [3] is no less than 500 µM; in series [4], no less than 500 µM; in series [5] it was greater than 5 µM; in series [7] it was greater than 5 µM.
For the compound `COc1ccccc1[C@@H]1CC(c2ccccc2O)=NN1C(=S)Nc1ccccc1`, the concentration for half-maximal inhibition (IC50) in series [1] was 3 µM; in series [3], greater than 250 µM; in series [4] it was greater than 250 µM; in series [5], greater than 5 µM; in series [7], 0.4 µM. Moreover, the CC50 at 24 h in series [2] came out at 6 µM. In addition, the MIC90 in series [3] was greater than 250 µM; in series [4] it was greater than 250 µM; in series [5], greater than 5 µM; in series [7], greater than 5 µM.
For the compound `COc1cc([C@@H]2CC(c3ccccc3O)=NN2C(=S)Nc2ccc(C)cc2)ccc1O`, the concentration for half-maximal inhibition (IC50) in series [1] is 0.5 µM; in series [3] it was no less than 500 µM; in series [4], no less than 500 µM; in series [5], greater than 19 µM; in series [7], 1 µM. Also, the CC50 at 24 h in series [2] is 16 µM. Moreover, the MIC90 in series [3] is no less than 500 µM; in series [4], no less than 500 µM; in series [5] it was greater than 19 µM; in series [7] it was 2 µM. For the same compound, in series [6], the Ratio is listed as greater than 10.
As to `COc1ccc(NC(=S)N2N=C(c3ccccc3O)C[C@H]2c2ccc(O)cc2)cc1`, the IC50 is 7 µM in series [1]; no less than 500 µM in series [3]; no less than 500 µM in series [4]; greater than 19 µM in series [5]; 0.7 µM in series [7]. In addition, in series [2], the CC50 at 24 h was 4 µM. Besides, the MIC90 in series [3] is no less than 500 µM; in series [4], no less than 500 µM; in series [5] it was greater than 19 µM; in series [7], 2 µM. The Ratio in series [6] is recorded as greater than 10.
Regarding `CN[C@@H]1[C@H](O[C@H]2[C@H](O[C@H]3[C@H](O)[C@@H](O)[C@H](N=C(N)N)[C@@H](O)[C@@H]3N=C(N)N)O[C@@H](C)[C@]2(O)C=O)O[C@@H](CO)[C@H](O)[C@H]1O` (stereo in doubt) [STREPTOMYCIN], the CC50 at 24 h in series [2] was greater than 500 µM. In addition, the MIC90 in series [5] and in series [7] was 0.2 µM in each case. Further, in series [6], the Ratio is on record as 1.
For the compound `C[C@@H]1C[C@@H]([C@H](O)CC2CC(=O)NC(=O)C2)C(=O)[C@@H](C)C1` [CYCLOHEXIMIDE], in series [2], the CC50 at 24 h is 0.1 µM.
